Experimental data taken from publication PMC3094704, “S-Petasin, the Main Sesquiterpene of Petasites formosanus, Inhibits Phosphodiesterase Activity and Suppresses Ovalbumin-Induced Airway Hyperresponsiveness” (Evidence-based Complementary and Alternative Medicine : eCAM, 2011).
Where a name gives a salt, the structure may show the parent alone.

Experiments:
[1] = tested on: guinea pig trachea; conditions: cited from earlier work
[2] = tested on: cAMP-phosphodiesterase (PDE); design: method as in PMID 11345692; conditions: cited from earlier work
[3] = tested on: female BALB/c mice; assay: Xylazine/ketamine-induced anesthesia; type: in vivo, mouse; conditions: 0.1–1 μmol/kg s.c., 15 min before anesthesia
Protocol: According to the method described by Robichaud et al. and modified by us, S-petasin (10–100 μmol/kg, s.c.) or rolipram (0.01–1 μmol/kg, s.c.), a reference drug, was injected into 8–12 week-old female BALB/c mice 1 h or 15 min, respectively, prior to an i.p. injection of xylazine (10 mg/kg)/ketamine (70 mg/kg). The vehicle (control) for S-petasin or for rolipram was a mixture of alcohol : DMSO : 30% HPβCD : saline (0.5 : 0.5 : 1 : 8 , v/v), or alcohol : DMSO : PEG 400 : saline (0.5 : 0.5 : 1 : 8, v/v), respectively. After loss of the righting reflex (i.e., when a mouse remained on its back and no longer spontaneously righted itself to a prone position), the duration of anesthesia was measured until its return as an endpoint.

[4] = target: PDE4; assay: Inhibition of PDE4 activity and Lineweaver-Burk analysis; type: biochemical, guinea pig
Protocol: (§1) Activities of PDE1–5, partially separated from guinea pig lungs and hearts according to the method described by Ko et al., were measured with a two-step procedure according to the method of Thompson and Appleman, using cAMP with [^3H]-cAMP or cGMP with [^3H]-cGMP as substrates. The enzyme pμreparation (25 μL) was incubated for 30 min at 37°C in a total assay volume of […] containing 50 mM Tris-HCl (pH 7.4), 3 mM MgCl2, 1 mM dithiothreitol, 0.05% BSA, 1 μM cAMP with 0.2 μCi [^3H]-cAMP as a substrate alone or in the presence of 0.1 units calmodulin with 10 μM CaCl2 or 5 μM cGMP, and 1 μM cGMP with 0.2 μCi [^3H]-cGMP as another substrate alone or in the presence of 0.1 units calmodulin with 10 μM CaCl2. In tests of enzyme inhibition, the reaction mixture contained 10 μL of vehicle or inhibitors, at various concentrations of S-petasin or selective PDE1–5 inhibitors, such as vinpocetin [22], EHNA [23], milrinone, Ro 20-1724 [25] and zaprinast, as reference drugs. The reagents and homogenate were mixed on ice, and the reaction was initiated by transferring the mixture to a water bath at 37°C. Following a 30-min incubation, the reaction was stopped by transferring the reaction vessel to a bath of boiling water for 3 min. After cooling on ice, 20 μL of a 1 mg/mL solution of C. atrox snake venom was added to the reaction mixture, and the mixture was incubated at 37°C for 10 min. Unreacted [^3H]-cAMP or [^3H]-cGMP was removed by the addition of 500 μL of a 1-in-1 Tris-HCl (40 mM) buffer suspension of Dowex resin (1 × 8-200) with incubation on ice for 30 min. Each tube was then centrifuged for 2 min at 3700 g, and 150 μL of the supernatant was removed for liquid scintillation counting. Less than 10% of the tritiated cyclic nucleotide was hydrolyzed in this assay. The total protein in each fraction used was assayed according to the method described by Bradford. The PDE activities are shown as nmol/mg/min in the Lineweaver-Burk analysis.

[5] = tested on: high-affinity rolipram binding sites (HARBSs) of guinea pig brain cell membranes; assay: Displacement of [3H]-rolipram (PDE4H determination)
Protocol: When the above-described guinea pigs were sacrificed, the whole brains were removed and homogenized with a glass/Teflon homogenizer (Glas-Col, Terre Haute, IN, USA) in 10 volumes of cold medium (pH 6.5) containing 20 mM Bis-Tris, 2 mM benzamidine, 2 mM EDTA, 50 mM sodium chloride, 0.1 mM PMSF and 1 mM dithiothreitol. At 4°C, the homogenate was centrifuged at 170 g for 5 min to remove connective tissues and blood vessels. The suspended homogenate was then re-centrifuged at 40 000 g for 30 min to separate the cytosolic and particulate portions. The particulate portion was re-suspended in a suspension at a concentration of 400 mg/mL (wet weight/volume), after washing three times with homogenizing buffer. The particulate portion mainly consisted of cell membranes. The binding ability of S-petasin (3–300 μM) or Ro 20-1724 (1–10,000 nM), a reference drug, to high-affinity rolipram binding sites (HARBSs) of the membranes was determined by replacing 2 nM [^3H]-rolipram in a reaction buffer at 30°C for 1 h, according to the method described by previous investigators and modified by us. Briefly, the reaction buffer consisted of 50 mM Tris-HCl and 5 mM MgCl2 (pH 7.5). The total volume of the reaction mixture was 25 μL, consisting of 10 μL of particulate suspension, 10 μL of [^3H]-rolipram and 5 μL of S-petasin or Ro 20-1724. After 1 h, the reaction was terminated by moving the reaction vessel into crushed ice. Then the reaction mixture was transferred onto Whatman GF/B glass-fiber filters, which were soaked in a 0.3% polyethyleneimine solution in a mini-funnel. The reaction mixture was filtered by centrifuging at 90 g for 10 s, and the filtrate was collected into a 1.5 mL Eppendorf tube with a top adapted to the outlet of the mini-funnel. The filters were washed with 300 μL of reaction buffer three times each in the same way, and transferred into 2 mL of cocktail for radiation counting (total binding) using a β-scintillation counter (Beckman, Fullerton, CA, USA). Non-specific binding, which was defined in the presence of 10 μM Ro 20-1724, was subtracted from the total binding to yield the specific binding. The effective concentration (EC50) values of S-petasin and Ro 20-1724, at which a half of [^3H]-rolipram bound onto HARBSs of cell membranes was displaced, were defined as the PDE4H values, and these were related to any adverse effects, such as nausea, vomiting and gastric hypersecretion.

[6] = tested on: isolated sensitized guinea pig trachea; assay: OVA-induced tracheal contractions and baseline tension in vitro
Protocol: Male Hartley guinea pigs (500–600 g) were sensitized by intramuscular injections of 0.7 mL of 5% (w/v) OVA in saline on Days 1, 4 and 43, and in adjuvant on Days 25 and 39 into each thigh, according to a method described by Underwood et al. and modified by us. Three days after the last injection, sensitized guinea pigs were sacrificed by cervical dislocation, and their tracheas removed. Each trachea was cut into six segments. Each segment consisted of three cartilage rings. All segments were cut open opposite the trachealis. […] Tissues were suspended in normal Krebs solution under an initial tension of 1.5 g and allowed to equilibrate for at least 1 h with washing at 15-min intervals. After the tissues were precontracted with KCl (60 mM) and washed with normal Krebs solution, OVA (0.1–100 μg/mL) was cumulatively added, and contractions were allowed to reach a steady state at each concentration. […] Therefore, the log concentration-response curves of OVA were constructed in the absence and presence of S-petasin. The tension of the precontraction induced by KCl was set as 100%.

[7] = target: PDE3; assay: Inhibition of PDE3 activity and Lineweaver-Burk analysis; type: biochemical, guinea pig
Protocol: as §1, with “In tests of enzyme inhibition, the reaction mixture contained 10 μL of vehicle or inhibitors, at various concentrations of S-petasin or selective PDE1–5 inhibitors, such as vinpocetin [22], EHNA [23], milrinone, Ro 20-1724 [25] and zaprinast, as reference drugs.” left out, “Less than 10% of the tritiated cyclic nucleotide was hydrolyzed in this assay.” left out

[8] = target: T1, PDE2 (Cavia porcellus, UniProt A0A286XUV5); assay: Inhibition of PDE2 activity (two-step radioenzymatic assay); type: biochemical, guinea pig; conditions: mean ± SEM (n); read-out: IC50 on PDE isozyme 2
T1 sequence (A0A286XUV5 22-936): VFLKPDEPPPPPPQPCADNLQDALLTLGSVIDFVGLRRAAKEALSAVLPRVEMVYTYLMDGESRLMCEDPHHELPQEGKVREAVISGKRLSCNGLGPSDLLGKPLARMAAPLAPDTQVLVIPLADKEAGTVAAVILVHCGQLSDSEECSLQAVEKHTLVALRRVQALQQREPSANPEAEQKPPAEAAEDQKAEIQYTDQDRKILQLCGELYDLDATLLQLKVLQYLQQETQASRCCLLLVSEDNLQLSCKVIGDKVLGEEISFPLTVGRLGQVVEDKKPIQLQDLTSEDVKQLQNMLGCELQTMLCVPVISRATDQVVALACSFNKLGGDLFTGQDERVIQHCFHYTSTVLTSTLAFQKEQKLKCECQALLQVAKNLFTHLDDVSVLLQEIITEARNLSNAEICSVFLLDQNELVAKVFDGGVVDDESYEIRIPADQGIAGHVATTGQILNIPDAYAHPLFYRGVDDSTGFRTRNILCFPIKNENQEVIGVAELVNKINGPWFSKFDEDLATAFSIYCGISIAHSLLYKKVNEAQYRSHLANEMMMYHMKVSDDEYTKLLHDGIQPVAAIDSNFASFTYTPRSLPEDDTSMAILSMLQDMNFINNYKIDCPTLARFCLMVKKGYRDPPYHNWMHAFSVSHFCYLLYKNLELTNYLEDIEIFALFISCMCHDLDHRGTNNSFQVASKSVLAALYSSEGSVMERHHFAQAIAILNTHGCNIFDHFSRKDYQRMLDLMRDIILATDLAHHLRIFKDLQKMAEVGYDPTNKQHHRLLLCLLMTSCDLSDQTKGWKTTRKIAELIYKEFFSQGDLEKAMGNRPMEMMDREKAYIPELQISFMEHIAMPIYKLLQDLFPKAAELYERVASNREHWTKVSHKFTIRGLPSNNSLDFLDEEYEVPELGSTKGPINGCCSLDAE
Protocol: as §1, with “In tests of enzyme inhibition, the reaction mixture contained 10 μL of vehicle or inhibitors, at various concentrations of S-petasin or selective PDE1–5 inhibitors, such as vinpocetin [22], EHNA [23], milrinone, Ro 20-1724 [25] and zaprinast, as reference drugs.” left out, “Each tube was then centrifuged for 2 min at 3700 g, and 150 μL of the supernatant was removed for liquid scintillation counting. Less than 10% of the tritiated cyclic nucleotide was hydrolyzed in this assay. The total protein in each fraction used was assayed according to the method described by Bradford. The PDE activities are shown as nmol/mg/min in the Lineweaver-Burk analysis.” left out

[9] = tested on: PDE1; assay: Inhibition of PDE1 activity (two-step radioenzymatic assay); type: biochemical, guinea pig; conditions: mean ± SEM (n); read-out: IC50 on PDE isozyme 1
Protocol: as §1, with “Unreacted [^3H]-cAMP or [^3H]-cGMP was removed by the addition of 500 μL of a 1-in-1 Tris-HCl (40 mM) buffer suspension of Dowex resin (1 × 8-200) with incubation on ice for 30 min. Each tube was then centrifuged for 2 min at 3700 g, and 150 μL of the supernatant was removed for liquid scintillation counting. Less than 10% of the tritiated cyclic nucleotide was hydrolyzed in this assay. The total protein in each fraction used was assayed according to the method described by Bradford. The PDE activities are shown as nmol/mg/min in the Lineweaver-Burk analysis.” left out

For S-isopetasin, the IC50 ([1]; precontracted by CCh and KCl, read-out: IC50 in relaxing guinea pig trachea) is listed as roughly 10 µM, the “Relaxing effect on guinea pig trachea” value ([1]; precontracted by histamine and LT D4) is listed as “almost no effect” and the “Inhibition of cAMP-phosphodiesterase (PDE) activity” value [2] is listed as “not”.

In the case of COc1ccc(C2CNC(=O)C2)cc1OC1CCCC1 (centres unmarked) [rolipram, reference compound], the “Duration of xylazine/ketamine-induced anesthesia” value [3] is reported as “dose-dependently and significantly shortened”.

With CCCCOc1cc(CC2CNC(=O)N2)ccc1OC (centres unmarked) [Ro 20-1724, 4-(3-butoxy-4-methoxybenzyl)-2-imidazolidinone, reference compound] the Ki ([4]; Lineweaver-Burk analysis, cAMP substrate, read-out: Ki on PDE isozyme 4) was 4.2 ± 0.7 µM, the “Mode of inhibition of PDE4 activity” value ([4]; Lineweaver-Burk analysis, S-petasin 3–30 μM, Ro 20-1724 1–10 μM) was “competitively inhibited” and the IC50 ([4]; mean ± SEM (n), read-out: IC50 on PDE isozyme 4 (taken as PDE4L value)) was 6.9 ± 0.6 µM. The EC50 ([5]; HARBSs of guinea pig brain cell membranes) was 0.0958 ± 0.0136 µM, the “percentage displacement of [3H]-rolipram binding” value ([5]; at the highest concentration (10 000 nM), 2 nM [3H]-rolipram) was 100%±2.1% and the “OVA (10 μg/mL)-induced contractions” value ([6]; 30 μM) was “significantly inhibited”. The Baseline tension ([6]; 3–30 μM) was “concentration-dependently and significantly relaxed” and the “OVA (10–100 μg/mL)-induced contractions” value ([6]; 10–30 μM) was “concentration-dependently inhibited”.

In the case of Cc1[nH]c(=O)c(C#N)cc1-c1ccncc1 [milrinone, reference compound], the Ki ([7]; Lineweaver-Burk analysis, cAMP substrate, read-out: Ki on PDE isozyme 3) is reported as 1.6 ± 0.2 µM, the “Mode of inhibition of PDE3 activity” value ([7]; Lineweaver-Burk analysis, S-petasin 3–30 μM, milrinone 0.3–3 μM) is reported as “competitively inhibited” and the IC50 ([7]; mean ± SEM (n), read-out: IC50 on PDE isozyme 3) is reported as 1.5 ± 0.2 µM.

For CCCCCC[C@@H]([C@@H](C)O)n1cnc2c(N)ncnc21 (racemic) [EHNA, erythro-9-(2-hydroxy-3-nonyl)-adenine HCl], the IC50 [8] was 6.5 ± 1 µM.

Molecule CCOC(=O)C1=C[C@]2(CC)CCCN3CCc4c(n1c1ccccc41)[C@@H]32 [vinpocetin, Vinpocetine, reference compound] has an IC50 [9] of 36.5 ± 8.8 µM.
